Reference: article PMC7435819, “Towards the Inhibition of Protein–Protein Interactions (PPIs) in STAT3: Insights into a New Class of Benzothiadiazole Derivatives” (Molecules, 2020)
Where two headings read alike, the source gives them in different places. Each block holds one molecule with its values, some of them ahead of it. Where no end group is shown, it is not given here. [ ]: non-standard residue; d: D form. pY = N[C@@H](Cc1ccc(OP(=O)(O)O)cc1)C(=O)O

Columns and labels:
[1] = biological target: T1, STAT3 (Homo sapiens, UniProt P40763); test: AlphaScreen-based competitive binding assay, STAT3 SH2 domain vs FITC-GpYLPQTV; settings: for IC50: STAT3 wild-type (WT), read-out: STAT3 inhibition: IC50; for % of control, STAT3 AlphaScreen: WT
T1 construct: a truncated form of STAT3 (136-705) was constructed and chromatographically purified; made in house
T1 sequence (P40763 136-705): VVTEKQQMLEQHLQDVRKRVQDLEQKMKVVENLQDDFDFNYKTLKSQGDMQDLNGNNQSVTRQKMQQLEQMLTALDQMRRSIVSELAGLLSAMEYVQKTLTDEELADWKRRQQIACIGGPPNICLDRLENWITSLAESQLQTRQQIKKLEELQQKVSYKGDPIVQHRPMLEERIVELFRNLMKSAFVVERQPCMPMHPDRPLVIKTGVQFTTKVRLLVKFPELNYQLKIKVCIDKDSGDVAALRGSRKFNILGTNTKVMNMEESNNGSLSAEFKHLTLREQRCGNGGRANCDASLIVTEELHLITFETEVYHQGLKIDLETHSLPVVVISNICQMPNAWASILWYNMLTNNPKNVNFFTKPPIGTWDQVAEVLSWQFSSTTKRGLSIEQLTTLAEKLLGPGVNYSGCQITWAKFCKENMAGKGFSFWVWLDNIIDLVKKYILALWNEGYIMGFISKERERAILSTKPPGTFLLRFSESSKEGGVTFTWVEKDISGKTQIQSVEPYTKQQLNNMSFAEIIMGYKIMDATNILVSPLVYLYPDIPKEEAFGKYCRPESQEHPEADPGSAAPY
Excerpt: (§1) AlphaScreen is an in vitro competitive binding test used to identify compounds that are able to inhibit the binding of proteins containing an SH2 domain to their corresponding phosphopeptides (5-carboxyfluorescein (FITC)-GpYLPQTV for STAT3 and FITC-GpYDKPHVL for STAT1) (Table 2).
(§2) AlphaScreen is a bead-based non-radioactive assay system for the detection of biomolecular interactions in a microtiter plate format. The binding of biological partners brings donor and acceptor beads into close proximity and, as a result, a fluorescent signal between 520 and 620 nm was produced. The AlphaScreen-based assays were performed in a final reaction volume of 25 μL of the assay buffer containing 10 mM HEPES–NaOH (pH 7.4), 50 mM NaCl, 1 mM EDTA (pH 8.0), 0.1% NP-40, and 10 ng/μL bovine serum albumin (BSA) in a 96-well microtiter plate at 25 °C. The pTyr peptide probes used in this study were 5-carboxyfluorescein (FITC)-GpYLPQTV for STAT3 and (FITC)-GpYDKPHVL for STAT1. Plasmid construction and protein expression were performed as previously described; the experimental method is briefly summarized as follows. Considering that the expression of the full-length protein is troublesome, a truncated form of STAT3 (136-705) was constructed and chromatographically purified (AKTA FPLC system; GE Healthcare Bio-Sciences, Piscataway, NJ, USA). The soluble STAT3 fraction was loaded on a HisTrap™ column (GE Healthcare Bio-Sciences) and eluted with an imidazole gradient (50 mM Tris–HCl pH 7.4, 300 mM NaCl, 0.2 mM EDTA, 0.1% (w/v) NP-40, 5 mM β-mercaptoethanol, 10% (v/v) glycerol, and 10–300 mM imidazole). An SDS-PAGE stained with Coomassie Brilliant Blue (CBB) was performed to check the purity of the protein (see Figure S71). Subsequently, the protein was dialyzed (10 mM HEPES-NaOH pH 7.4, 50 mM NaCl, 10 mM β-mercaptoethanol, 0.1 mM EGTA, 0.02% (w/v) NP-40, 0.2 mM phenylmethylsulphonyl fluoride (PMSF), and 10% (v/v) glycerol).
(§3) Firstly, 75 nM of each SH2-containing protein were incubated with the test compound (at the following concentrations: 1, 3, 10, and 30 µM) for 15 min. Each protein sample was then incubated for 90 min with 50 nM of its corresponding FITC-pTyr peptide and simultaneously mixed with streptavidin-coated donor beads and anti-FITC acceptor beads before detection at 570 nm using EnVison Xcite (PerkinElmer, Waltham, MA, USA).

[2] = biological target: T2, STAT1 (Homo sapiens, UniProt P42224); test: AlphaScreen-based competitive binding assay, STAT1 vs FITC-GpYDKPHVL; settings: read-out: STAT1 inhibition: IC50
T2 sequence (P42224 1-750): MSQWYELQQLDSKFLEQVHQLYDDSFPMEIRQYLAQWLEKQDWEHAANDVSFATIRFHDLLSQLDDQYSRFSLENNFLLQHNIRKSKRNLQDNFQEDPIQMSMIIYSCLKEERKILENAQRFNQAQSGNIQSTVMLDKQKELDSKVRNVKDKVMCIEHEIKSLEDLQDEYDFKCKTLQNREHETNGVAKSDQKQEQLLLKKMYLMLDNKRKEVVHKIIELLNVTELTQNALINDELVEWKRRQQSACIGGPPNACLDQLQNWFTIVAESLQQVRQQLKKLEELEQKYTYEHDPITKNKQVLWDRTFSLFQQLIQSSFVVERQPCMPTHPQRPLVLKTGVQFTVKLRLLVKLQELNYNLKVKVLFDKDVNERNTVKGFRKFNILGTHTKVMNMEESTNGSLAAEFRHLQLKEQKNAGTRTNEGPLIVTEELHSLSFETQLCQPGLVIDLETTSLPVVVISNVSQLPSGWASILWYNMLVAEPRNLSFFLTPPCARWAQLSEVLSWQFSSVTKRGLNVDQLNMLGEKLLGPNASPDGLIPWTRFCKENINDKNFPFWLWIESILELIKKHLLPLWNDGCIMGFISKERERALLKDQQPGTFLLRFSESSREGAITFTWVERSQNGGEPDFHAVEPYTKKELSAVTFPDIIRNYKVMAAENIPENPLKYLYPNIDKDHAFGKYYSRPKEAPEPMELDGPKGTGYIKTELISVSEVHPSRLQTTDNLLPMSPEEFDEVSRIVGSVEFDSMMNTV
Excerpt: as §1
as §2, with “The soluble STAT3 fraction was loaded on a HisTrap™ column (GE Healthcare Bio-Sciences) and eluted with an imidazole gradient (50 mM Tris–HCl pH 7.4, 300 mM NaCl, 0.2 mM EDTA, 0.1% (w/v) NP-40, 5 mM β-mercaptoethanol, 10% (v/v) glycerol, and 10–300 mM imidazole). An SDS-PAGE stained with Coomassie Brilliant Blue (CBB) was performed to check the purity of the protein (see Figure S71). Subsequently, the protein was dialyzed (10 mM HEPES-NaOH pH 7.4, 50 mM NaCl, 10 mM β-mercaptoethanol, 0.1 mM EGTA, 0.02% (w/v) NP-40, 0.2 mM phenylmethylsulphonyl fluoride (PMSF), and 10% (v/v) glycerol).” left out

[3] = parameters: method as in doi:10.1039/P29840001851; settings: cited from earlier work
[4] = biological target: T3, STAT3 Cys687A (Homo sapiens, UniProt P40763, C687A); test: AlphaScreen-based assay, STAT3 single-cysteine mutant Cys687A; format: binding; settings: for % of control, STAT3 AlphaScreen: Cys687A
T3 construct: a truncated form of STAT3 (136-705) was constructed and chromatographically purified; made in house
T3 sequence (P40763 136-705 C687A): as the sequence (P40763 136-705) above, with C552A counted along it
Experimental: (§4) Furthermore, to gain insight into the activity of compound 1, its interaction with the cysteine residues located in the vicinities of the SH2 domain (Figure 3) was investigated and evaluated by an AlphaScreen-based assay using different mutants (Table 3).
(§5) The same procedure was used to evaluate compound 1 activity versus STAT3 single-cysteine-residue mutants (Cys468A, Cys542A, Cys550A, Cys687A, and Cys712A). Briefly, 3 µL of compound 1 in DMSO (at 0.3, 1, 3, 10 and 30 µM concentration) were premixed with 1 µL of L-Cys in PBS and 16 µL of an AlphaScreen buffer. Then, the mixture was immediately (<5 min) mixed with the STAT3 mutant solution before adding the FITC-peptide.

[5] = biological target: Grb2 (Homo sapiens, UniProt P62993); test: AlphaScreen-based assay, Grb2 (other SH2 domain-containing protein); format: binding; settings: 30 µM
Experimental: as §1, §3

[6] = biological target: T4, STAT3 Cys712A (Homo sapiens, UniProt P40763, C712A); test: AlphaScreen-based assay, STAT3 single-cysteine mutant Cys712A; format: binding; settings: for % of control, STAT3 AlphaScreen: Cys712A
T4 construct: made in house
T4 sequence (P40763 whole entry C712A): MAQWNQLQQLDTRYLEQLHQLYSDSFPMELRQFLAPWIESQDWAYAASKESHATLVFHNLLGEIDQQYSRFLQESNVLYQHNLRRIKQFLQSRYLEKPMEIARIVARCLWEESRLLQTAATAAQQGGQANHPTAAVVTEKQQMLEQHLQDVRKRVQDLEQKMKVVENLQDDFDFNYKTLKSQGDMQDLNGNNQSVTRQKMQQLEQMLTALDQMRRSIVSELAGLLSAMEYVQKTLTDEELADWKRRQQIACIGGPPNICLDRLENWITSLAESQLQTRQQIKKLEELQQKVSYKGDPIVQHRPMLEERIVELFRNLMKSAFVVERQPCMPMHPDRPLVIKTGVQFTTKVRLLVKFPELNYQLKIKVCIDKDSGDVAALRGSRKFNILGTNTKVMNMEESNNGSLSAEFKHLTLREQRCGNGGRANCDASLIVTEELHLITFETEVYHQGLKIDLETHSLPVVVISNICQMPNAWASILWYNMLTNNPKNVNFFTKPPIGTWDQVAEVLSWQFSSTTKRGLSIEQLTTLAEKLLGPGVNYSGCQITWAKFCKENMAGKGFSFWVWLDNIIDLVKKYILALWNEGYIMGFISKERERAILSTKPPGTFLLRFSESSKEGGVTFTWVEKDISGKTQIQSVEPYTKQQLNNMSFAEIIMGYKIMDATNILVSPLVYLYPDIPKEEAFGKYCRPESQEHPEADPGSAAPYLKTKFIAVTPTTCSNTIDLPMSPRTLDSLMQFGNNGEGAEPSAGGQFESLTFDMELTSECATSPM
Experimental: as §4, §5

[7] = biological target: T5, STAT3 Cys468A (Homo sapiens, UniProt P40763, C468A); test: AlphaScreen-based assay, STAT3 single-cysteine mutant Cys468A; format: binding; settings: for % of control, STAT3 AlphaScreen: Cys468A
T5 construct: a truncated form of STAT3 (136-705) was constructed and chromatographically purified; made in house
T5 sequence (P40763 136-705 C468A): as the sequence (P40763 136-705) above, with C333A counted along it
Experimental: as §4, §5

[8] = biological target: T6, STAT3 Cys542A (Homo sapiens, UniProt P40763, C542A); test: AlphaScreen-based assay, STAT3 single-cysteine mutant Cys542A; format: binding; settings: for % of control, STAT3 AlphaScreen: Cys542A
T6 construct: a truncated form of STAT3 (136-705) was constructed and chromatographically purified; made in house
T6 sequence (P40763 136-705 C542A): as the sequence (P40763 136-705) above, with C407A counted along it
Experimental: as §4, §5

[9] = biological target: T7, STAT3 Cys550A (Homo sapiens, UniProt P40763, C550A); test: AlphaScreen-based assay, STAT3 single-cysteine mutant Cys550A; format: binding; settings: for % of control, STAT3 AlphaScreen: Cys550A
T7 construct: a truncated form of STAT3 (136-705) was constructed and chromatographically purified; made in house
T7 sequence (P40763 136-705 C550A): as the sequence (P40763 136-705) above, with C415A counted along it
Experimental: as §4, §5

[10] = biological target: T8, truncated form of STAT3 (136-705) (UniProt P40763 136-705); test: AlphaScreen or HTRF; same procedure with STAT3 single-cysteine mutants; compound 1 (0.3-30 µM) premixed with L-Cys in PBS and AlphaScreen buffer, mixed with the STAT3 mutant solution before adding the FITC-peptide; settings: both partners purified
T8 construct: STAT3, residues 136-705; also called STAT3 wild-type; source: plasmid construction and protein expression as previously described [52]; chromatographically purified (HisTrap column, imidazole gradient), dialyzed
T8 sequence (P40763 136-705): as the sequence (P40763 136-705) above

[11] = 30 µM, n.a.: not active, read-out: STAT3 % Inhibition (30 µM)

inhibition at 30 µM [1, 11]: 56.9 ± 3.6%
IC50 [1]: 25.1 µM
IC50 [2]: 15.9 µM
Molecule: O=[N+]([O-])c1ccc2c(c1)NS(=O)(=O)N2 [Compound 1d, 5-Nitro-1H,3H-2,1,3-benzothiadiazole-2,2-dioxide]

melting point: 148 °C
% of control, STAT3 AlphaScreen ([4]; [1] 1 μM): 93.3 % of control
% of control, STAT3 AlphaScreen ([4]; [1] 3 μM): 89.7 % of control
% of control, STAT3 AlphaScreen ([4]; [1] 10 μM): 78.3 % of control
% of control, STAT3 AlphaScreen ([4]; [1] 30 μM): 51.9 % of control
IC50 ([4]; mutated Cys687A): > 30 µM
inhibition versus Grb2 [5]: 23%
% of control, STAT3 AlphaScreen ([6]; [1] 1 μM): 113.4 % of control
% of control, STAT3 AlphaScreen ([6]; [1] 3 μM): 112.4 % of control
% of control, STAT3 AlphaScreen ([6]; [1] 10 μM): 110.5 % of control
% of control, STAT3 AlphaScreen ([6]; [1] 30 μM): 108.0 % of control
IC50 ([6]; mutated Cys712A): > 30 µM
% of control, STAT3 AlphaScreen ([7]; [1] 1 μM): 111.8 % of control
% of control, STAT3 AlphaScreen ([7]; [1] 3 μM): 108.3 % of control
% of control, STAT3 AlphaScreen ([7]; [1] 10 μM): 101.1 % of control
% of control, STAT3 AlphaScreen ([7]; [1] 30 μM): 79.7 % of control
IC50 ([7]; mutated Cys468A): > 30 µM
inhibition at 30 µM [1, 11]: 96.5 ± 1.1%
IC50 [1]: 15.8 µM
inhibition at 30 µM ([1]; Table 1, AlphaScreen-based assay at 30 µM, STAT3-SH2 domain, read-out: % Inhibition): 96.5%
% of control, STAT3 AlphaScreen ([1]; [1] 1 μM): 98.6 % of control
% of control, STAT3 AlphaScreen ([1]; [1] 3 μM): 94.1 % of control
% of control, STAT3 AlphaScreen ([1]; [1] 10 μM): 72.4 % of control
% of control, STAT3 AlphaScreen ([1]; [1] 30 μM): 18.4 % of control
% of control, STAT3 AlphaScreen ([8]; [1] 1 μM): 102.5 % of control
% of control, STAT3 AlphaScreen ([8]; [1] 3 μM): 101.3 % of control
% of control, STAT3 AlphaScreen ([8]; [1] 10 μM): 98.1 % of control
% of control, STAT3 AlphaScreen ([8]; [1] 30 μM): 92.3 % of control
IC50 ([8]; mutated Cys542A): > 30 µM
% of control, STAT3 AlphaScreen ([9]; [1] 1 μM): 132.9 % of control
% of control, STAT3 AlphaScreen ([9]; [1] 3 μM): 136.0 % of control
% of control, STAT3 AlphaScreen ([9]; [1] 10 μM): 135.2 % of control
% of control, STAT3 AlphaScreen ([9]; [1] 30 μM): 124.7 % of control
IC50 ([9]; mutated Cys550A): > 30 µM
IC50 [2]: > 50 µM
Molecule: Cc1cc2c(cc1C)NS(=O)(=O)N2 [Compound 1, 5,6-Dimethyl-1H,3H-2,1,3-benzothiadiazole-2,2-dioxide]
pKa [3]: 6.88 ± 0.03

binding result [10]: binds
B1: 5-carboxyfluorescein (FITC)-GpYLPQTV (peptide)
peptide: G[pY]LPQTV
modifications: not fully specified (N-terminus)
notes: also called pTyr peptide probe for STAT3; phosphotyrosine peptide
